Patent publication US20180298010A1, “PRMT5 INHIBITORS AND USES THEREOF” (Epizyme, Inc., priority 2012, published 2018)

Legend:
Z-138 cells = test: Z-138 Proliferation Assay (Cell Titer Glo, 5 days); format: cell-based; details: Homo sapiens, 120 h
Text: Z-138 Proliferation Assay
Z-138 suspension cells were purchased from ATCC (American Type Culture Collection, Manassas, Va.). RPMI/Glutamax medium, penicillin-streptomycin, heat inactivated fetal bovine serum were purchased from Life Technologies, Grand Island, N.Y., USA. V-bottom polypropylene 384-well plates were purchased from Greiner Bio-One, Monroe, N.C., USA. Cell culture 384-well white opaque plates were purchased from Perkin Elmer, Waltham, Mass., USA. Cell-Titer Glo® was purchased from Promega Corporation, Madison, Wis., USA. SpectraMax M5 plate reader was purchased from Molecular Devices LLC, Sunnyvale, Calif., USA.
Z-138 suspension cells were maintained in growth medium (RPMI 1640 supplemented with 10% v/v heat inactivated fetal bovine serum and cultured at 37° C. under 5% CO2 Under assay conditions, cells were incubated in assay medium (RPMI 1640 supplemented with 10% v/v heat inactivated fetal bovine serum and 100 units/mL penicillin-streptomycin) at 37° C. under 5% CO2.
For the assessment of the effect of compounds on the proliferation of the Z-138 cell line, exponentially growing cells were plated in 384-well white opaque plates at a density of 10,000 cells/ml in a final volume of 50 μl of assay medium. A compound source plate was prepared by performing triplicate nine-point 3-fold serial dilutions in DMSO, beginning at 10 mM (final top concentration of compound in the assay was 20 μM and the DMSO was 0.2%). A 100 nL aliquot from the compound stock plate was added to its respective well in the cell plate. […] After addition of compounds, assay plates were incubated for 5 days at 37° C., 5% CO2, relative humidity>90%.
Cell viability was measured by quantitation of ATP present in the cell cultures, adding 35 μl of Cell Titer Glo® reagent to the cell plates. Luminescence was read in the SpectraMax M5 microplate reader. The concentration of compound inhibiting cell viability by 50% was determined using a 4-parametric fit of the normalized dose response curves.

PRMT5/MEP50 = target: T1, PRMT5/MEP50 (Homo sapiens, UniProt O14744); test: PRMT5 Biochemical Assay (PRMT5/MEP50 enzyme assay on peptide substrate, 3H-SAM Flashplate)
T1 construct: Flag-PRMT5; 6His-MEP50
T1 sequence (O14744 with tags, fused parts or gaps): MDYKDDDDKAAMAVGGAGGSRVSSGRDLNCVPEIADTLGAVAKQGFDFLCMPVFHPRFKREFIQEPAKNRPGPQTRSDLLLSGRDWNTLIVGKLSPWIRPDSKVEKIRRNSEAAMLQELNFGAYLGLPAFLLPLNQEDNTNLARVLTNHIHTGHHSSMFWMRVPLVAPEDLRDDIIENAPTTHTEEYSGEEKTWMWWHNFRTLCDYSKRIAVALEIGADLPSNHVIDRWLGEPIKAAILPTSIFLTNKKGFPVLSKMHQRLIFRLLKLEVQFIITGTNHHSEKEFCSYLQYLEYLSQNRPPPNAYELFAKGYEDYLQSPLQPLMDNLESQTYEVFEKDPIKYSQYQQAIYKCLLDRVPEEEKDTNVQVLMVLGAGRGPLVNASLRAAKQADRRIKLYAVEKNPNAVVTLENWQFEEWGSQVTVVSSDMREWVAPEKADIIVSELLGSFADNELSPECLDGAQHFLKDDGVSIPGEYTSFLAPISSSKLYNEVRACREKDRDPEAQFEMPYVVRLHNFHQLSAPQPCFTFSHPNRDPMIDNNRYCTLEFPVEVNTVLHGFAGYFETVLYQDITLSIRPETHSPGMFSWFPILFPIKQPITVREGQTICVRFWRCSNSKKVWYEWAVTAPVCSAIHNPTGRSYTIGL
T1 sequence (Q9BQA1 with tags, fused parts or gaps partner): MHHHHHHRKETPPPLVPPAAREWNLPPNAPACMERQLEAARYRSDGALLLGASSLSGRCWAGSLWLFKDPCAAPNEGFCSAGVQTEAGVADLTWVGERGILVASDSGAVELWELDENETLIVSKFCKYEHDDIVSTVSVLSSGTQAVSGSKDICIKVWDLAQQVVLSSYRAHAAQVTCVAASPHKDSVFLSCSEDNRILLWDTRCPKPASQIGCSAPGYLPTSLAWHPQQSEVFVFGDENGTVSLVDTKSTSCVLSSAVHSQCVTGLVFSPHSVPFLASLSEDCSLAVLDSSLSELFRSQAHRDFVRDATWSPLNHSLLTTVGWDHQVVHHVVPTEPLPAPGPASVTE
Method in brief: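 FLAG-PRMT5/His-MEP50 from Sf9 cells (4 nM) preincubated 30 min at 25 °C with compound in 20 mM Bicine pH 7.6, 1 mM TCEP, 1% DMSO. Reaction started with 75 nM 3H-SAM on 40 nM biotinylated H4 1-15 peptide, stopped with cold SAM. Bound 3H-peptide counted on streptavidin Flashplates, normalised to DMSO and 100 uM SAH controls.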

[1] = system: Symmetric di-Methyl Arginine in Z-138 cells; test: Z-138 Methylation Assay (In Cell Western for symmetric di-methyl arginine and DNA content); format: cell-based; details: Homo sapiens, read-out: ICW EC50
Text: Z-138 suspension cells were purchased from ATCC (American Type Culture Collection, Manassas, Va.). RPMI/Glutamax medium, penicillin-streptomycin, heat inactivated fetal bovine serum, and D-PBS were purchased from Life Technologies, Grand Island, N.Y., USA. Odyssey blocking buffer, 800CW goat anti-rabbit IgG (H+L) antibody, and Licor Odyssey infrared scanner were purchased from Licor Biosciences, Lincoln, Nebr., USA. Symmetric di-methyl arginine antibody was purchased from EMD Millipore, Billerica, Mass., USA. 16% Paraformaldehyde was purchased from Electron Microscopy Sciences, Hatfield, Pa., USA.
Z-138 suspension cells were maintained in growth medium (RPMI 1640 supplemented with 10% v/v heat inactivated fetal bovine serum and 100 units/mL penicillin-streptomycin) and cultured at 37° C. under 5% CO2 […]
Calculations: First, the ratio for each well was determined by:
Each plate included fourteen control wells of DMSO only treatment (minimum inhibition) as well as fourteen control wells for maximum inhibition treated with 3 μM of a reference compound (Background wells). The average of the ratio values for each control type was calculated and used to determine the percent inhibition for each test well in the plate. […] Percent inhibition was determined and IC50 curves were generated using triplicate wells per concentration of compound.

Structure (SMILES) | EC50 (Z-138 cells) | IC50 (PRMT5/MEP50) | EC50 [1]
Cn1cnc2ccc(-c3cccc(OCC(O)CN4CCc5ccccc5C4)c3)cc21 (stereo not shown) [Compound 45, 1-(3,4-dihydroisoquinolin-2(1H)-yl)-3-(3-(1-methyl-1H-benzo[d]imidazol-6-yl)phenoxy)propan-2-ol] | 1000 to 10000 nM | – | –
OC(COc1cccc(-c2ccc3c(c2)OCO3)c1)CN1CCc2ccccc2C1 (stereo not shown) [Compound 59, 1-(3-(benzo[d][1,3]dioxol-5-yl)phenoxy)-3-(3,4-dihydroisoquinolin-2(1H)-yl)propan-2-ol] | 10000 to 40000 nM | 101 to 1000 nM | –
OC(COc1cccc(-c2ccc3nn[nH]c3c2)c1)CN1CCc2ccccc2C1 (stereo not shown) [Compound 84, 1-(3-(1H-benzo[d][1,2,3]triazol-6-yl)phenoxy)-3-(3,4-dihydroisoquinolin-2(1H)-yl)propan-2-ol] | 1000 to 10000 nM | 101 to 1000 nM | –
Cn1cnc2ccc(-c3ccnc(NCC(O)CN4CCc5ccccc5C4)c3)cc21 (stereo not shown) [Compound 118, 1-(3,4-Dihydroisoquinolin-2(1H)-yl)-3-((4-(1-methyl-1H-benzo[d]imidazol-6-yl)pyridin-2-yl)amino)propan-2-ol] | 1000 to 10000 nM | – | –
OC(COc1cccc(-c2ccc3ncsc3c2)c1)CN1CCc2ccccc2C1 (stereo not shown) [Compound 123, 1-(3-(benzo[d]thiazol-6-yl)phenoxy)-3-(3,4-dihydroisoquinolin-2(1H)-yl)propan-2-ol] | 10000 to 40000 nM | – | 1000 to 10000 nM
COC(=O)c1cccc(-c2cccc(OCC(O)CN3CCc4ccccc4C3)c2)c1 (stereo not shown) [Compound 135] | > 20000 nM | 101 to 1000 nM | –
CN1CCN(c2ccc(-c3cccc(OCC(O)CN4CCc5ccccc5C4)c3)cn2)CC1 (stereo not shown) [Compound 149] | 1000 to 10000 nM | 101 to 1000 nM | –
Cn1cnc2ccc(-c3cccc(OC[C@@H](O)CN4CCc5ccccc5C4)c3)cc21 [Compound 173] | 1000 to 10000 nM | – | –
Cn1cnc2ccc(-c3cccc(OC[C@H](O)CN4CCc5ccccc5C4)c3)cc21 [Compound 174] | 1000 to 10000 nM | – | –
COC(=O)c1cncc(-c2cccc(OCC(O)CN3CCc4ccccc4C3)c2)c1 (stereo not shown) [Compound 180] | > 20000 nM | 1000 to 10000 nM | –
Cn1cnc2ccc(-c3cccc(OCC(O)CN4CCc5ccccc5C4)c3)nc21 (stereo not shown) [Compound 189, 1-(3,4-dihydroisoquinolin-2(1H)-yl)-3-(3-(3-methyl-3H-imidazo[4,5-b]pyridin-5-yl)phenoxy)propan-2-ol] | 101 to 1000 nM | – | –
OC(COc1cccc(-c2ccc3ncn(C4CNC4)c3c2)c1)CN1CCc2ccccc2C1 (stereo not shown) [Compound 208, 1-(3-(1-(azetidin-3-yl)-1H-benzo[d]imidazol-6-yl)phenoxy)-3-(3,4-dihydroisoquinolin-2(1H)-yl)propan-2-ol] | 1000 to 10000 nM | 101 to 1000 nM | –
CNC(=O)Cn1cnc2ccc(-c3cccc(OCC(O)CN4CCc5ccccc5C4)c3)cc21 (stereo not shown) [Compound 262] | 1000 to 10000 nM | 101 to 1000 nM | –
O=C(Cn1cnc2ccc(-c3cccc(OCC(O)CN4CCc5ccccc5C4)c3)cc21)N1CCOCC1 (stereo not shown) [Compound 264] | 1000 to 10000 nM | 101 to 1000 nM | –
Cc1ncc2ccc(-c3cccc(OCC(O)CN4CCc5ccccc5C4)c3)cn12 (stereo not shown) [Compound 266, 1-(3,4-dihydroisoquinolin-2(1H)-yl)-3-(3-(3-methylimidazo[1,5-a]pyridin-6-yl)phenoxy)propan-2-ol] | 1000 to 10000 nM | – | –
Cn1cnc2ccc(-c3ccnc(NC[C@H](O)CN4CCc5ccccc5C4)c3)cc21 [Compound 275] | 1000 to 10000 nM | – | –
Cn1cnc2ccc(-c3ccnc(NC[C@@H](O)CN4CCc5ccccc5C4)c3)cc21 [Compound 276] | 1000 to 10000 nM | – | –
OC(COC1CCCCCC1)CN1CCc2ccccc2C1 (stereo not shown) [Compound 309] | – | 1000 to 10000 nM | –
OC(COC1CCOCC1)CN1CCc2ccccc2C1 (stereo not shown) [Compound 310] | – | 10000 to 40000 nM | –
CC(=O)N1CC(Nc2cc(CNCC(O)CN3CCc4ccccc4C3)ncn2)C1 (stereo not shown) [Compound 311] | – | > 10000 nM | –
CC(=O)N1CCC(Nc2cc(CNCC(O)CN3CCc4ccccc4C3)ncn2)CC1 (stereo not shown) [Compound 312] | – | > 10000 nM | –
CC(=O)N1CCC(Nc2cc(CNCC(O)CN3CCc4ccccc4C3)ccn2)CC1 (stereo not shown) [Compound 313] | – | > 10000 nM | –
